A short description of this data set: Bulk density / tapped density (tapped density tester ETD-1020). In kind it is physicochemical. An excerpt:
The bulk density used tapped density tester dual-platform ETD-1020 (Electrolab). System specifications. Speed: nominal rate of 300 taps per minute, Accuracy: Actual setting ±1 tap, Drop height: 14±2 mm. Platform rotation: 5-15 rotations/minute.

The record followed here is US20100274050A1, “SOLID MILNACIPRAN AND PROCESS FOR THE PREPARATION OF THE SAME” (Glenmark Generics Limited, priority 2009, published 2010).

SMILES strings stand for the structures. Structures can show the parent of a compound that is named as a salt.

On to `CCN(CC)C(=O)C1(c2ccccc2)CC1CN` (stereo not shown) [milnacipran hydrochloride, Milnacipran hydrochloride], for which the Tapped density entry is given as “Tapped density = 0.43 g/ml”.
